“And” between values parts separate entries of the source, which are not always exact repeats. Identical values can stand only once. Like-named read-outs stand apart in the source and are kept apart here.
Experiments:
[1] = tested on: respiration (f, VT, VE); assay: Urethane-anaesthetised rat, respiration; details: Fig6e
Method: The femoral vein was catheterised for drug delivery.
Adult male Sprague–Dawley rats (400-500 g) were anaesthetised with urethane and instrumented as described above, with the exception that the arterial cannulation was not performed.
Changes in f, VT, and VE were measured. If the dosing occurred close to a respiratory event such as a sigh a second IV dose was administered, with 20 min recovery periods either side of the injection.

[2] = tested on: heart rate and mean arterial blood pressure; assay: Urethane-anaesthetised rat, heart rate and arterial blood pressure; details: for HR / HR, Average / MAP, Average: Fig6e
From the text: Anaesthesia was induced in adult male Sprague–Dawley rats (230-330 g) with isofluorane (2–4%; Piramal Healthcare). The femoral vein was catheterised for drug delivery. Anaesthesia was maintained with urethane (1.2–1.7 g kg^−1; Sigma) in sterile saline delivered via the femoral vein catheter. […] The trachea was cannulated and the femoral artery catheterised, and both were connected to pressure transducers (Digitimer) to record respiratory airflow and arterial blood pressure, respectively. Blood pressure and airflow signals were amplified using the NeuroLog system (Digitimer) connected to a micro1401 interface and acquired on a computer using Spike2 software (v7.08a; Cambridge Electronic Design). […] Airflow measurements were used to calculate: tidal volume (VT; mL; pressure sensors were calibrated with a 3 mL syringe), and respiratory frequency (f; breaths min^−1; BrPM). Minute ventilation (VE; mL min^−1) was calculated as f × VT.
Cardiovascular and respiratory parameters were allowed to stabilise before experiments began. A1R agonists were administered by intravenous (IV) injection and the changes in HR, MAP, f, VT, and VE were measured. […] All injections were administered IV as a 350 µl·kg^-1 bolus.

[3] = tested on: neuropathic pain (paw withdrawal threshold); assay: Spinal nerve ligation (Chung model), mechanical allodynia, von Frey; type: in vivo, rat
Method: Adult male Sprague–Dawley rats, 7-8 weeks old, weighing around 250 g at the time of Chung model surgery, were purchased from Charles River UK Ltd. The animals were housed in groups of 4 in an air-conditioned room on a 12-hour light/dark cycle. Food and water were available ad libitum. They were allowed to acclimatise to the experimental environment for three days by leaving them on a raised metal mesh for at least 40 min. The baseline paw withdrawal threshold (PWT) was examined using a series of graduated von Frey hairs (see below) for 3 consecutive days before surgery and re-assessed on the 6th to 8th day after surgery and on the 13th to 17th day after surgery before drug dosing.
Prior to surgery each rat was anaesthetised with 3% isoflurane mixed with oxygen (2 L min^−1) followed by an intramuscular injection of ketamine (60 mg kg^−1) plus xylazine (10 mg kg^−1). The back was shaved and sterilised with povidone-iodine. The animal was placed in a prone position and a para-medial incision was made on the skin covering the L4-6 level. The L5 spinal nerve was carefully isolated and tightly ligated with 6/0 silk suture. The wound was then closed in layers after a complete haemostasis. A single-dose of antibiotics (Amoxipen, 15 mg/rat, intraperitoneally, IP) was routinely given for prevention of infection after surgery. The animals were placed in a temperature-controlled recovery chamber until fully awake before being returned to their home cages. The vehicle (normal saline or DMSO) was administered via the IV route at 1 ml·kg^−1 and via the intrathecal (IT) route at 10 µl for each injection. […] To test for mechanical allodynia the animals were placed in individual Perspex boxes on a raised metal mesh for at least 40 min before the test. Starting from the filament of lower force, each filament was applied perpendicularly to the centre of the ventral surface of the paw until slightly bent for 6 seconds. If the animal withdrew or lifted the paw upon stimulation, then a hair with force immediately lower than that tested was used. If no response was observed, then a hair with force immediately higher was tested. […] The animals were returned to their home cages to rest (about 30 min) between two neighbouring testing time points. At the end of each experiment, the animals were deeply anaesthetised with isoflurane and killed by decapitation.

[4] = Half-life determination in PBS; type: physicochemical; details: for 1st / % Compound Remaining / 2nd / % Compound Remaining / Mean / % Compound Remaining: PBS, pH 7.4; for half-life: buffer, pH 7.4, PBS
Method: […] Samples were analysed by HPLC-MS/MS and corresponding peak areas were recorded for each analyte. The ratio of precursor compound remaining after each time-point relative to the amount present at time 0, expressed as a percentage, is reported as chemical stability.

[5] = tested on: motor coordination
Method: On the day of the experiment, three baseline trials were recorded. The compound was administered IP (10 µg kg^−1, n = 6) or IV via tail vein injection (10 and 25 µg kg^−1, n = 6 per group). The control group received subcutaneous saline and the positive control group received subcutaneous morphine (15 mg kg^−1). Latency to fall (seconds) was measured in triplicate at 1, 2, 3 and 5 h post drug administration.

[6] = incubation 0 minutes, UoBern01 at 1.00E-06 M
[7] = incubation 60 minutes, UoBern01 at 1.00E-06 M
[8] = incubation 120 minutes, UoBern01 at 1.00E-06 M
[9] = antagonist group, 1h after dosing
[10] = antagonist group, 2h after dosing
[11] = antagonist group, 4h after dosing

OC[C@H]1O[C@@H](n2cnc3c(N[C@@H]4CCC[C@H]4OCc4ccccc4)ncnc32)[C@H](O)[C@@H]1O [B]
Freq, Average ([1]; dose group B 8, n 12): 166.9 | Freq, Average ([1]; dose group B 17, n 4): 189.3 | Freq, Average ([1]; dose group B 25, n 4): 209.0 | HR ([2]; dose group B 8, individual rat): 406 and 368 and 425 and 416 and 331 and 340 and 420 and 470 | HR, Average ([2]; dose group B 8, n 8): 397.0 | MAP, Average ([2]; dose group B 8, n 8): 111.3 | HR ([2]; dose group B 17, individual rat): 369 and 385 and 301 and 313 | HR, Average ([2]; dose group B 17, n 4): 342.0 | MAP, Average ([2]; dose group B 17, n 4): 115.8 | HR ([2]; dose group B 25, individual rat): 362 and 382 and 312 and 305 | HR, Average ([2]; dose group B 25, n 4): 340.3 | MAP, Average ([2]; dose group B 25, n 4): 113.5

OC[C@H]1O[C@@H](n2cnc3c(NC4CCCC4OCc4ccccc4)ncnc32)[C@H](O)[C@@H]1O (some centres unmarked) [BnOCPAA]
paw withdrawal threshold, individual animals (Fig7d) ([3]; 6ug, 1h after dosing): 8 | paw withdrawal threshold, Average (Fig7d) ([3]; 6ug, 1h after dosing, n 11): 9.8 | paw withdrawal threshold, individual animals (Fig7d) ([3]; 6ug, 2h after dosing): 8 | paw withdrawal threshold, Average (Fig7d) ([3]; 6ug, 2h after dosing, n 11): 12.6 | paw withdrawal threshold, individual animals (Fig7d) ([3]; 6ug, 4h after dosing): 8 | paw withdrawal threshold, Average (Fig7d) ([3]; 6ug, 4h after dosing, n 11): 9.8

O=C(O)CCCc1ccc(N(CCCl)CCCl)cc1 [Chlorambucil]
1st / % Compound Remaining [4, 6]: 100% | 2nd / % Compound Remaining [4, 6]: 100% | Mean / % Compound Remaining [4, 6]: 100% | 1st / % Compound Remaining ([4]; incubation 30 minutes): 68.5% | 2nd / % Compound Remaining ([4]; incubation 30 minutes): 81.3% | Mean / % Compound Remaining ([4]; incubation 30 minutes): 74.9% | 1st / % Compound Remaining [4, 7]: 45.8% | 2nd / % Compound Remaining [4, 7]: 52.3% | Mean / % Compound Remaining [4, 7]: 49.1% | 1st / % Compound Remaining ([4]; incubation 90 minutes): 27.3% | 2nd / % Compound Remaining ([4]; incubation 90 minutes): 31% | Mean / % Compound Remaining ([4]; incubation 90 minutes): 29.2% | 1st / % Compound Remaining [4, 8]: 11% | 2nd / % Compound Remaining [4, 8]: {17.7} % | Mean / % Compound Remaining [4, 8]: 11% | half-life ([4]; UoBern01 at 1.00E-06 M, read-out: 1st / Half-Life): 39 min | half-life ([4]; UoBern01 at 1.00E-06 M, read-out: 2nd / Half-Life): 52.6 min | half-life ([4]; UoBern01 at 1.00E-06 M, read-out: Mean / Half-Life): 46 min

CCCn1c(=O)c2[nH]c(C3CCCC3)nc2n(CCC)c1=O [DPCPX]
effect on reversal of mechanical allodynia by BnOCPA ([3]; DPCPX 1 mg kg^−1 IP, BnOCPA 6 µg kg^−1 IV): prevented the reversal of mechanical allodynia by BnOCPA | paw withdrawal threshold, Average (Fig7d) [3, 9]: 4.0 | paw withdrawal threshold, individual animals (Fig7d) [3, 9]: 6 and 4 and 2 | paw withdrawal threshold, Average (Fig7d) [3, 10]: 4.0 | paw withdrawal threshold, individual animals (Fig7d) [3, 10]: 6 and 4 and 2 | paw withdrawal threshold, Average (Fig7d) [3, 11]: 4.7 | paw withdrawal threshold, individual animals (Fig7d) [3, 11]: 6 and 4 and 2

CCCOC(=O)c1c(-c2ccccc2)nc(CC)c(C(=O)SCC)c1CCC [MRS1523]
effect on analgesia caused by BnOCPA ([3]; MRS1523 2 mg kg^−1 IP, BnOCPA 6 µg kg^−1 IV): had no effect on the analgesia caused by BnOCPA | paw withdrawal threshold, Average (Fig7d) [3, 9]: 13.6 | paw withdrawal threshold, individual animals (Fig7d) [3, 9]: 15 and 8 | paw withdrawal threshold, Average (Fig7d) [3, 10]: 14.0 | paw withdrawal threshold, individual animals (Fig7d) [3, 10]: 15 and 10 | paw withdrawal threshold, Average (Fig7d) [3, 11]: 12.2 | paw withdrawal threshold, individual animals (Fig7d) [3, 11]: 15 and 10 and 6

Nc1ncnc2c1ncn2[C@@H]1O[C@H](CO)[C@@H](O)[C@H]1O [ado]
heart rate ([2]; Fig5c, individual rat): 179 and 147 and 138 and 122 | heart rate, Average ([2]; Fig5c, n 4): 147 | mean arterial blood pressure ([2]; Fig5d, individual rat): 56 and 36 and 42 and 48 | mean arterial blood pressure, Average ([2]; Fig5d, n 4): 46

CN1CC[C@]23c4c5ccc(O)c4O[C@H]2[C@@H](O)C=C[C@H]3[C@H]1C5 [morphine]
Seconds on rota, 1h avg ([5]; Morphine, 1h post inj, avg of 3 trials per animal): 12.0 s and 6.0 s and 5.0 s and 6.3 s and 10.7 s and 10.3 s | 1h avg/ baseline ([5]; Morphine, 1h post inj, per animal): 0.218 and 0.137 and 0.1 and 0.2 and 0.164 and 0.0833 | Seconds on rota, 1h ([5]; Morphine, 1h post inj, single trials, individual animals): 5 s and 14 s and 17 s and 9 s and 4 s and 2 s and 10 s and 8 s and 1 s and 12 s | average of avg/baseline, 1hr post inj ([5]; Morphine, 1hr, group average): 0.150 | Seconds on rota, 2h avg ([5]; Morphine, 2h post inj, avg of 3 trials per animal): 34.0 s and 19.7 s and 12.3 s and 6.7 s and 21.7 s and 31.0 s | 2h avg/ baseline ([5]; Morphine, 2h post inj, per animal): 0.6 and 0.45 and 0.259 and 0.2 and 0.333 and 0.25 | Seconds on rota, 2h ([5]; Morphine, 2h post inj, single trials, individual animals): 30 Seconds and 27 Seconds and 45 Seconds and 7 Seconds and 18 Seconds and 34 Seconds and 2 Seconds and 17 Seconds and 8 Seconds and 6 Seconds (2×) and 24 Seconds and 22 Seconds and 19 Seconds and 26 Seconds | average of avg/baseline, 2hr post inj ([5]; Morphine, 2hr, group average): 0.352 | Seconds on rota, 3h avg ([5]; Morphine, 3h post inj, avg of 3 trials per animal): 46.3 s and 37.7 s and 34.0 s and 18.7 s and 55.0 s | 3h avg/ baseline ([5]; Morphine, 3h post inj, per animal): 0.842 and 0.9 and 0.7 and 0.566 and 0.444 | Seconds on rota, 3h ([5]; Morphine, 3h post inj, single trials, individual animals): 39 s and 41 s and 59 s and 27 s and 29 s and 57 s and 21 s and 54 s and 11 s and 23 s and 22 s and 26 s and 65 s | average of avg/baseline, 3hr post inj ([5]; Morphine, 3hr, group average): 0.690 | Seconds on rota, 5h avg ([5]; Morphine, 5h post inj, avg of 3 trials per animal): 48.7 s and 52.3 s and 48.0 s and 81.7 s and 84.3 s | 5h avg/ baseline ([5]; Morphine, 5h post inj, per animal): 0.9 and 1.1 and 1.5 and 1.3 and 0.7 | Seconds on rota, 5h ([5]; Morphine, 5h post inj, single trials, individual animals): 24 s and 57 s and 65 s and 31 s and 60 s and 55 s and 19 s and 73 s and 38 s and 51 s and 67 s and 81 s and 97 s and 88 s and 100 s | average of avg/baseline, 5hr post inj ([5]; Morphine, 5hr, group average): 1.081 | rotarod performance ([5]; morphine 15 mg kg^−1 SC): caused sedation and motor impairment
